# From PMC8287028 (Frontiers in Veterinary Science, 2021)
# What was measured:
# Factor Xa = conditions: cited from earlier work
# [1] = target: T1, bovine activated Factor X (Bos taurus, UniProt P00743); experiment: Apixaban-calibrated anti-Xa activity (aXa) chromogenic bioassay on plasma of dosed dogs; assay type: in vivo
# T1 construct: purchased Diagnostica Stago STA Liquid anti-Xa
# Procedure: (§1) Coagulation assays were performed on platelet-poor, citrated plasma samples by a reference laboratory (Comparative Coagulation Laboratory, Animal Health Diagnostic Center, Ithaca, NY). […] The assay is configured with a bovine activated Factor X reagent that is added in excess to the test plasma and a chromogenic substrate of Factor Xa (STA Liquid anti-Xa, Diagnostica Stago). Residual, uninhibited Factor Xa cleaves the chromogenic substrate such that the inverse of the color change in the reaction mixture is proportional to the drug concentration in the test plasma. […] A mechanical endpoint method (STA Compact, Diagnostica Stago) and human coagulation reagents were used to measure prothrombin time (Thromboplastin LI, Helena Diagnostics, Beaumont, TX) and activated partial thromboplastin time (Dade Actin FS, Dade Behring, Newark, DE). […] Tissue-factor (1:50,000 final dilution) activated TEG was performed using standard equipment (TEG-5000, Haemonetics, Braintree, MA) as previously reported ([35]), with assays conducted per established guidelines ([36]), with a modification to eliminate the rest time to facilitate rapid sample processing. Thromboelastography assays were conducted by experienced operators using four TEG channels and tracings terminated after maximum amplitude was established. Four values were extracted from TEG tracings: reaction time (R-time), clot formation time (K-time), clot formation angle (alpha), and maximum amplitude (MA).
# Pairwise comparisons between continuous variables were conducted with Wilcoxon matched-pairs signed rank test, while comparisons of more than two groups were conducted using the Friedman test with Dunn's post-hoc adjustment. Specifically, the Wilcoxon matched-pairs signed rank tests were used to compare the complete blood count and serum chemistry values between baseline and the +24 h time point. Comparisons of pharmacodynamic variables between baseline values and those at discrete sampling intervals were performed using the Friedman test with Dunn's post-hoc correction for multiple comparisons. […] Alpha was set at 0.05. Statistical analyses were performed using commercial software (Prism 9, GraphPad, La Jolla, CA).
# prothrombin time = experiment: Prothrombin time (PT) on citrated plasma of dosed dogs; assay type: in vivo, dog
# Procedure: as §1, with “plasma. […] Assay controls, consisting of human plasma spiked with apixaban (STA Apixaban Controls, Diagnostica Stago) were analyzed before each batch of test samples to confirm assay performance. The apixaban levels in calibrators and controls are defined by the manufacturer from an internal reference assayed by HPLC-MS.” for “plasma.”
# Pairwise comparisons between continuous variables were conducted with Wilcoxon matched-pairs signed rank test, while comparisons of more than two groups were conducted using the Friedman test with Dunn's post-hoc adjustment. […]
# healthy mixed-breed dogs = experiment: Monitoring for adverse reactions after IV and PO apixaban; conditions: study period
# From the text: Additionally, drug metabolism might be different in beagles compared with mixed-breed dogs ([33], [34]). […] The study was approved by the Institutional Animal Care and Use Committee (IACUC) at Cornell University College of Veterinary Medicine (Protocol #2019-0099). All dogs were housed at Cornell University and cared for by licensed veterinarians and technicians according to established protocols. All dogs were permanently adopted into private homes after study completion.
# On the days of drug administration, 5 Fr × 25 cm trilumen wire-guided catheters (Mila International, Erlanger, KY) were aseptically placed in external jugular veins by modified-Seldinger technique to facilitate atraumatic, repeat blood sample collection. Dogs were sedated with IV butorphanol 0.2 mg/kg and dexmedetomidine 5 μg/kg (Zoetis, Parsippany, NJ) to facilitate catheter placement. Jugular catheters were secured using 3-0 nylon sutures, protected with sterile bandages, and flushed with 0.9% saline (no heparin was used). […] Dogs were closely monitored for adverse reactions throughout the sample collection period. […] After each sample collection, one citrate anticoagulated whole blood sample was analyzed using thromboelastography (TEG), while the second citrate sample was centrifuged (1,370 g, 10 min, 20°C), the plasma separated, split into two aliquots and then frozen at −80°C pending batch analyses.
# major plasma proteins = experiment: Protein binding by ex vivo ultrafiltration of spiked plasma, LC/MS; assay type: in vitro ADME, dog
# Procedure: For each dog a sample of anticoagulated platelet-poor plasma collected at baseline was centrifuged (16,000 g, 5 min, 4°C) and the supernatant filtered with a […] syringe filter. […] One aliquot was centrifuged (16,000 g, 30 min, 4°C) in a molecular exclusion device (Amicon Ultra 30k filter, Millipore-Sigma) to remove the major plasma proteins. The spiked plasma and the ultrafiltrate were then analyzed for apixaban by LC/MS as above. Protein binding (%) was determined as: [Total concentration] – [[…] Unbound concentration]/Total concentration ×100.
# [2] = male beagles, 5 mg/kg 14C labeled apixaban orally; cited from earlier work
# [3] = cited from earlier work
# T1 sequence (P00743 234-492 limits assumed): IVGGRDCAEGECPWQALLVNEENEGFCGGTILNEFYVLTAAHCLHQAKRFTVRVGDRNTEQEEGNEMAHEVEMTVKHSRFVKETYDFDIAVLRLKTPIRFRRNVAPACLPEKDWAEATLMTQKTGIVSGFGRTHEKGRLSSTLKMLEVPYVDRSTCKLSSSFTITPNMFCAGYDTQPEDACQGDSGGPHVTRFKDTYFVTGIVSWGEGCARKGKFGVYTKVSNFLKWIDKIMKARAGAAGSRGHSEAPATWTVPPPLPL
# T1 sequence (P00743 41-180 limits assumed): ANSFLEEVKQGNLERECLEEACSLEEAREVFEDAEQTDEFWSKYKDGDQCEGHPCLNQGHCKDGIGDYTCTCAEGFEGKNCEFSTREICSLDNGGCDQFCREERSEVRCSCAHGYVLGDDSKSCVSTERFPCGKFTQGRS
compound,measurement,setting,value
COc1ccc(-n2nc(C(N)=O)c3c2C(=O)N(c2ccc(N4CCCCC4=O)cc2)CC3)cc1 [apixaban],aXa activity observed after 12 h,Factor Xa; humans receiving a single intravenous apixaban injection,150 ng/mL
same,aXa activity values typically observed in human treatment trials,Factor Xa; humans,approximately 150 ng/ml
same,mean aXa activity following intravenous injection,"[1]; IV 0.18 mg/kg, at mean plasma concentration […]",650 ng/mL
same,Emax (anti-Xa activity),"[1]; IV, mean dose 0.18 mg/kg, model E=(Emax x C)/(C+EC50)",1400.5 ng/mL
same,mean aXa activity compared with human values,[1]; PO 0.2 mg/kg,remained below values typically observed for human moderate to high dose anticoagulant effect
same,aXa corresponding to the mean maximum observed plasma concentration,"[1]; PO 0.2 mg/kg, 6 h post-dosing",128 ng/mL
same,time of peak aXa activity,[1]; following oral administration 0.2 mg/kg,approximately 5 h
same,PT versus baseline,"prothrombin time; IV 0.18 mg/kg, at 5, 15, 30 and 60 min",significantly prolonged
same,concentration required to double the PT from baseline,"prothrombin time; IV, estimate from the regression equation line of Figure 2B","2,485 ng/ml"
same,PT versus baseline,"prothrombin time; PO 0.2 mg/kg, at 4, 6 and 8 h",significantly prolonged
same,"adverse reactions, including signs of abnormal bleeding or bruising",healthy mixed-breed dogs,no adverse reactions
same,fraction unbound at 500 ng/ml,"major plasma proteins; both sexes, mixed-breed, platelet-poor plasma, dog plasma spiked at 500 ng/ml, ultrafiltration, mean of 6 dogs, using 7 ng/ml for the deproteinated samples",0.014
same,apixaban concentration in deproteinated samples,"major plasma proteins; ultrafiltrate of dog plasma spiked at 500 ng/ml, all samples",< 7 ng/mL
same,excretion of the unchanged compound via gastrointestinal routes,[2],59%
same,excretion of the unchanged compound via renal route,[2],7%
same,protein-bound,[3],over 90%
same,time to maximal plasma concentrations,"[3]; dogs, 0.5 mg/kg IV or PO",2.8 h
same,oral bioavailability,"[3]; dogs, 0.5 mg/kg, liquid formulation with methylcellulose and polysorbate 80",80%
same,standard PT,"[3]; dogs, Thromboplastin C-Plus reagent",not the standard PT
same,factor Xa-dependent clotting time test (HEPTEST),[3]; dogs,prolonged
